Measurements: ChEMBL document CHEMBL5634183, “Total Synthesis of Bipenicilisorin and Assignment of the Absolute Configuration” (J Nat Prod, 2024)
pIC50: −log10 of the molar value.

Key:
A549 [1] = assay: Antiproliferative activity against human A549 cells assessed as reduction in cell viability incubated for 72 hrs by CCK8 assay; assay type: functional, cell-based
[2] = Cytotoxicity against mouse RAW264.7 cells assessed as reduction in cell viability incubated for 72 hrs by CCK8 assay; assay type: toxicity, cell-based
K562 = assay: Antiproliferative activity against human K562 cells assessed as reduction in cell viability by CCK8 assay; assay type: functional, cell-based
A549 [3] = assay: Antiproliferative activity against human A549 cells assessed as reduction in cell viability by CCK8 assay; assay type: functional, cell-based
Huh-7 = assay: Antiproliferative activity against human Huh-7 cells assessed as reduction in cell viability by CCK8 assay; assay type: functional, cell-based
Colon 26 = assay: Antiproliferative activity against mouse Colon 26 cells assessed as reduction in cell viability incubated for 72 hrs by CCK8 assay; assay type: functional, cell-based; settings: Colon 26, 72 h

pIC50 (A549 [1]; Homo sapiens, A549, 72 h): 4.43 | pIC50 (A549 [1]; a549): 4.22 | pIC50 (K562): 5.16 | pIC50 (A549 [3]): 5.16 | pIC50 (Huh-7): 5.59
Structure (SMILES): COC(=O)c1cc2cc(OC)c(-c3c(OC)cc4cc(C(=O)OC)oc(=O)c4c3O)c(O)c2c(=O)o1
IC50 at 72 h [2]: > 50 µM | pIC50 (Colon 26): < 4.30
